Like-named read-outs stand apart in the source and are kept apart here.
How the values were obtained:
[1] = molecular target: T1, rat histamine H3 receptor (Rattus norvegicus, UniProt Q9QYN8); assay: Rat H3 radioligand binding ([3H]-N-alpha-methylhistamine, SPA)
T1 construct: encoding the entire 445-amino-acid rat histamine H3 receptor; expressed in transfected cells; membrane preparation
Source text: Cell line development and membrane preparation. The rat H3 receptor cDNA was PCR amplified from reverse-transcribed RNA pooled from rat thalamus, hypothalamus, striatum and prefrontal cortex with a sequence corresponding to by #338-1672 of Genbank file #NM_053506, encoding the entire 445-amino-acid rat histamine H3 receptor. This was engineered into the pIRES-neo3 mammalian expression vector, which was stably transfected into the CHO-A3 cell line (Euroscreen, Belgium), followed by clonal selection by limiting dilution. Cells were harvested and cell pellets were frozen (−80° C.). Cell pellets were resuspended in 5 mM Tris-HCl, pH 7.5 with […] and a cocktail of protease inhibitors (Complete Protease Inhibitior Tablets, Roche Diagnostics). Cells were disrupted using a polytron cell homogenizer and the suspension was centrifuged at 1000×g for 10 minutes at 4° C. The pellet was discarded and the supernatant centrifuged at 40,000×g for 30 min at 4° C. This membrane pellet was washed in membrane buffer containing 50 mM Tris-HCl, pH 7.5 with 0.6 mM EDTA, 5 mM MgCl2 and protease inhibitors, recentrifuged as above and the final pellet resuspended in membrane buffer plus 250 mM sucrose and frozen at −80° C.
(§1) Radioligand Binding. Membranes were resuspended in 50 mM Tris HCl (pH 7.4), 5 mM MgCl2, 0.1% BSA. The membrane suspensions (10 μg protein per well) were incubated in a 96 well microtiter plate with [^3H]-N-alpha-methylhistamine (approximately 1 nM final concentration), test compounds at various concentrations (0.01 nM-30 μM) and scintillation proximity beads (Perkin Elmer, FlashBlueGPCR Scintillating Beads) in a final volume of 80 μl for 4 hours at room temperature, protected from light. Non-specific binding was determined in the presence of 10 μM clobenpropit. Radioligand bound to receptor, and therefore in proximity to the scintillation beads, was measured using a MicroBeta scintillation counter.

human H3 receptor = molecular target: T2, human H3 receptor (Homo sapiens, UniProt Q9Y5N1); assay: Human H3 radioligand binding ([3H]-N-alpha-methylhistamine, SPA)
T2 construct: expressed in transfected cells
Method: Methods: CHO cells stably expressing the human H3 receptor (GenBank: NM_007232) were harvested and cell pellets were frozen (−80° C.). Cell pellets were resuspended in 5 mM Tris-HCl, pH 7.5 with […] and a cocktail of protease inhibitors (Complete Protease Inhibitior Tablets, Roche Diagnostics). Cells were disrupted using a polytron cell homogenizer and the suspension was centrifuged at 1000×g for 10 minutes at 4° C. The pellet was discarded and the supernatant centrifuged at 40,000×g for 30 min at 4° C. This membrane pellet was washed in membrane buffer containing 50 mM Tris-HCl, pH 7.5 with 0.6 mM EDTA, 5 mM MgCl2 and protease inhibitors, recentrifuged as above and the final pellet resuspended in membrane buffer plus 250 mM sucrose and frozen at −80° C.
as §1

[2] = Table A, rat H3 binding, read-out: Rat Ki
[3] = Table A, human H3 binding, read-out: Human Ki
[4] = Rat H3 binding, Table B, Examples 136-362, read-out: rat H3 binding Ki
[5] = Human H3 binding, Table B, Examples 136-362, read-out: hum H3 binding Ki
[6] = rat H3 binding, Table D, read-out: Rat H3 Ki
[7] = human H3 binding, Table D, read-out: Human H3 Ki

T2 sequence (Q9Y5N1 whole entry): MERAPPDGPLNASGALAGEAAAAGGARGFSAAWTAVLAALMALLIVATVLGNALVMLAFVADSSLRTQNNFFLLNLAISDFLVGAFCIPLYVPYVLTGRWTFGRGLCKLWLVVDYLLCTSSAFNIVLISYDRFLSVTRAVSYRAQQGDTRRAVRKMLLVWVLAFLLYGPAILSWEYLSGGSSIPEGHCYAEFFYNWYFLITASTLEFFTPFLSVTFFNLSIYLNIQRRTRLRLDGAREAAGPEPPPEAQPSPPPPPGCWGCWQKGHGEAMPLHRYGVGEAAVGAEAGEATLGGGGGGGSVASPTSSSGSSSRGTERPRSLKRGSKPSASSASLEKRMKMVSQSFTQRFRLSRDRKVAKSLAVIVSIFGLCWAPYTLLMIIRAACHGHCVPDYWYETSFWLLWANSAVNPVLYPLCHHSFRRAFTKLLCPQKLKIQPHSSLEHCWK
T1 sequence (Q9QYN8 whole entry): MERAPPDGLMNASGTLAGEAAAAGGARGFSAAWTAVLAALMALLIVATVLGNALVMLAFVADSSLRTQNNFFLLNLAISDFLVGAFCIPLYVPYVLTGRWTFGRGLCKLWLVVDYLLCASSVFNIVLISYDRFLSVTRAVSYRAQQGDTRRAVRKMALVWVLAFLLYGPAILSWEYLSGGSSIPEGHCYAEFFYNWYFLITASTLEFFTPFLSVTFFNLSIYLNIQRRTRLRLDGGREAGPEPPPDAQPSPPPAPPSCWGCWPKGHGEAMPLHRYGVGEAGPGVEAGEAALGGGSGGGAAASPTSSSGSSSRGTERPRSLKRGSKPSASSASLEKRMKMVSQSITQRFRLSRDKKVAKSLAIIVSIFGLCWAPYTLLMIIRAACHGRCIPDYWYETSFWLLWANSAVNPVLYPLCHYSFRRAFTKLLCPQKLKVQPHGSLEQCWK

With CN(C)c1ncc(-c2ccc3c(c2)CCC2(CCN(C4CCC4)CC2)O3)cn1 [Example 108] the Ki [1, 2] was less than 200 nM and the Ki (human H3 receptor; [3]) was less than 200 nM.

CCOc1ccc(-c2ccc3c(c2)COC2(CCN(C4CCC4)CC2)O3)cn1 [Example 11] showed a Ki [1, 2] of less than 200 nM and a Ki (human H3 receptor; [3]) of less than 200 nM.

In the case of CS(=O)(=O)c1ccc(-c2ccc3c(c2)CCC2(CCN(C4CCC4)CC2)O3)cc1 [Example 101], the Ki [1, 2] is reported as less than 200 nM and the Ki (human H3 receptor; [3]) is reported as less than 200 nM.

CNC(=O)c1ccc(-c2ccc3c(c2)CCC2(CCN(C4CCC4)CC2)O3)cc1 [Example 106] was tested, and the Ki [1, 2] was less than 200 nM and the Ki (human H3 receptor; [3]) was less than 200 nM.

Compound Nc1cccc(-c2ccc3c(c2)COC2(CCN(C4CCC4)CC2)O3)c1 [Example 51] has a Ki [1, 2] of less than 200 nM and a Ki (human H3 receptor; [3]) of less than 200 nM.

For FC(F)(F)Oc1ccc(-c2ccc3c(c2)CCC2(CCN(C4CCC4)CC2)O3)cc1 [Example 105], the Ki [1, 2] was 200 to 1000 nM and the Ki (human H3 receptor; [3]) was less than 200 nM.

Compound O=C(O)c1c(F)cc(-c2ccc3c(c2)CCC2(CCN(C4CCC4)CC2)O3)cc1F [Example 318] has a Ki [1, 4] of less than 200 nM and a Ki (human H3 receptor; [5]) of less than 200 nM.

NS(=O)(=O)c1ccc(-c2ccc3c(c2)CCC2(CCN(C4CCC4)CC2)O3)cc1 [Example 116] was tested, and the Ki [1, 2] was less than 200 nM and the Ki (human H3 receptor; [3]) was less than 200 nM.

For Fc1ncccc1-c1ccc2c(c1)CCC1(CCN(C3CCC3)CC1)O2 [Example 118], the Ki [1, 2] was less than 200 nM and the Ki (human H3 receptor; [3]) was less than 200 nM.

Compound c1csc(-c2ccc3c(c2)COC2(CCN(C4CCC4)CC2)O3)c1 [Example 12] has a Ki [1, 2] of less than 200 nM and a Ki (human H3 receptor; [3]) of less than 200 nM.

In the case of N#Cc1ccc(Oc2ccc3c(c2)COC2(CCN(C4CCC4)CC2)O3)cc1 [Example 132], the Ki [1, 2] is reported as less than 200 nM and the Ki (human H3 receptor; [3]) is reported as less than 200 nM.

Compound c1cc2c(cc1OCC1CCCO1)CCC1(CCN(C3CCC3)C1)O2 (stereo not drawn) [Example 445] has a Ki ([1]; read-out: Rat H3 kI) of 200 to 1000 nM and a Ki (human H3 receptor; read-out: Human H3 Ki) of 200 to 1000 nM.

Compound COC(c1ccncc1)c1ccc2c(c1)COC1(CCN(C3CCC3)CC1)O2 (stereo not drawn) [Example 724] has a Ki [1, 6] of less than 200 nM and a Ki (human H3 receptor; [7]) of less than 200 nM.

CNC(=O)c1ccc(-c2ccc3c(c2)CCC2(CCN(C4CCC4)CC2)O3)cc1F [Example 115] gave a Ki [1, 2] of less than 200 nM and a Ki (human H3 receptor; [3]) of less than 200 nM.

c1nc(Cc2ccc3c(c2)COC2(CCN(C4CCC4)CC2)O3)cs1 [Example 701] gave a Ki [1, 6] of less than 200 nM and a Ki (human H3 receptor; [7]) of less than 200 nM.

For OCc1ccc(-c2ccc3c(c2)CCC2(CCN(C4CCC4)CC2)O3)cc1 [Example 117], the Ki [1, 2] was less than 200 nM and the Ki (human H3 receptor; [3]) was less than 200 nM.

For COc1ncc(-c2ccc3c(c2)COC2(CCN(C4CCC4)CC2)O3)cn1 [Example 23], the Ki [1, 2] was less than 200 nM and the Ki (human H3 receptor; [3]) was less than 200 nM.

In the case of c1ncc(Cc2ccc3c(c2)COC2(CCN(C4CCC4)CC2)O3)s1 [Example 690], the Ki [1, 6] is reported as less than 200 nM and the Ki (human H3 receptor; [7]) is reported as less than 200 nM.

CCNC(=O)C1CCC(c2ccc3c(c2)COC2(CCN(C4CCC4)CC2)O3)CC1 (stereo not drawn) [Example 524] showed a Ki ([1]; read-out: Rat H3 kI) of less than 200 nM and a Ki (human H3 receptor; read-out: Human H3 Ki) of less than 200 nM.

Compound NC(=O)Nc1cccc(-c2ccc3c(c2)COC2(CCN(C4CCC4)CC2)O3)c1 [Example 52] has a Ki [1, 2] of less than 200 nM and a Ki (human H3 receptor; [3]) of less than 200 nM.

With CN(C)S(=O)(=O)c1ccc(-c2ccc3c(c2)COC2(CCN(C4CCC4)CC2)O3)cc1 [Example 32] the Ki [1, 2] was less than 200 nM and the Ki (human H3 receptor; [3]) was less than 200 nM.

With O=S(=O)(c1ccc(-c2ccc3c(c2)COC2(CCN(C4CCC4)CC2)O3)c(F)c1)N1CCOCC1 [Example 65] the Ki [1, 2] was less than 200 nM and the Ki (human H3 receptor; [3]) was less than 200 nM.

Work on COCc1cc(=O)n(C)cc1-c1ccc2c(c1)COC1(CCN(C3CCC3)CC1)O2 [Example 790] yielded a Ki [1, 6] of less than 200 nM and a Ki (human H3 receptor; [7]) of less than 200 nM.

CCNC(=O)C1CC=C(c2ccc3c(c2)COC2(CCN(C4CCC4)CC2)O3)CC1 (stereo not drawn) [Example 523] gave a Ki ([1]; read-out: Rat H3 kI) of less than 200 nM and a Ki (human H3 receptor; read-out: Human H3 Ki) of less than 200 nM.

O=C(O)c1c(F)cc(-c2ccc3c(c2)COC2(CCN(C4CCC4)CC2)O3)cc1F [Example 334] showed a Ki ([1]; Rat H3 binding, Table B, given as numeric bound instead of class symbol, read-out: rat H3 binding Ki) greater than 300 nM and a Ki (human H3 receptor; [5]) of 200 to 1000 nM.

With N#Cc1ccc(-c2ccc3c(c2)CCC2(CCN(C4CCC4)CC2)O3)cc1 [Example 110] the Ki [1, 2] was less than 200 nM and the Ki (human H3 receptor; [3]) was less than 200 nM.

c1cc2c(cc1N1CCOCC1)COC1(CCN(C3CCC3)CC1)O2 [Example 214] showed a Ki [1, 4] of less than 200 nM and a Ki (human H3 receptor; [5]) of less than 200 nM.
